Measured values: EP0377642B1, “HERBICIDES FOR WEED CONTROL IN RICE” (E.I. DU PONT DE NEMOURS AND COMPANY, priority 1987, dated 1989)
Where two headings read alike, the source gives them in different places.

How the values were obtained:
Assay type in all cases: in vivo
direct seeded rice [1] = test: Field test applied 7 DAS in direct seeded rice in the Philippines, phytotoxicity (Table 14); settings: 30 DAA
Description: (§1) Methyl 2-[[[[(4-methoxy-6-methyl-1,3,5-triazin-2-yl)amino]carbonyl]amino]sulfonyl]benzoate (Compound 1) and mixtures thereof with other compounds were applied as a spray (using a hand sprayer) to rice (either transplanted or direct seeded) in several rice growing areas in Southeast Asia and in the U.S. Tables 1-28 contain the results of these tests and clearly exemplify the utility of this invention. The details of each application are included in the appropriate table. [drawing 2]

Sphenoclea zeylanica [2] = test: Field test applied at 25 DAS in direct seeded rice (Table 13); settings: 4 GM.A.I./HA, scale 0-10
Description: as §1

Cyperus iria [3] = test: as above; settings: 4 GM.A.I./HA, scale 0-10
Description: as §1

Cyperus difformis [4] = test: Herbicidal efficacy with Bensulfuron methyl and 2,4-D in Thailand (Table 18); settings: 4 GAI/HA; 13 days after treatment
Description: as §1

Sphenoclea zeylanica [5] = test: as above; settings: 4 GAI/HA; 13 days after treatment
Description: as §1

rice [6] = test: as above; settings: 4 GAI/HA; 13 days after treatment
Description: as §1

direct seeded rice [7] = test: Field test with Bensulfuron methyl in direct seeded rice, yield (Table 10)
Description: as §1

Sphenoclea zeylanica [8] = test: Field test with Bensulfuron methyl in direct seeded rice (Table 10); settings: 10 = complete control
Description: as §1

Marsilea crenata = test: as above; settings: 10 = complete control
Description: as §1

Cyperus iria [9] = test: as above; settings: 10 = complete control
Description: as §1

Sphenoclea zeylanica [10] = test: Herbicidal efficacy with Bensulfuron methyl and 2,4-D in Thailand (Table 19); settings: 4 GAI/HA; 13 days after treatment
Description: as §1

rice [11] = test: as above; settings: 4 GAI/HA; 13 days after treatment
Description: as §1

Cuperus difformis = test: as above; settings: 4 GAI/HA; 13 days after treatment
Description: as §1

FIMBRISTYLIS MILIACEA [12] = test: Herbicidal efficacy with Bensulfuron methyl and 2,4-D in Thailand (Table 20); settings: 4 GAI/HA; 14 days after treatment
Description: as §1

Sphenoclea zeylanica [13] = test: as above; settings: 4 GAI/HA; 14 days after treatment
Description: as §1

Cuperus iria = test: as above; settings: 4 GAI/HA; 14 days after treatment
Description: as §1

rice [14] = test: as above; settings: 4 GAI/HA; 14 days after treatment
Description: as §1

Ludwigia linifolia = test: as above; settings: 4 GAI/HA; 14 days after treatment
Description: as §1

direct seeded rice [15] = settings: 4 GM.A.I./HA; for PHYTO at 2WAA: scale 0-10
Description: as §1

rice [16] = test: Effects in combination with Bensulfuron Methyl and Thiobencarb or Pretilachlor on rice growth (Table 23); settings: rate 2 g ai/ha; var. Koshihikari, applied 7 days after transplanting, rated 21 days after application
Description: as §1

WEED [17] = test: Effects in combination with Bensulfuron Methyl and Thiobencarb or Pretilachlor on weed control (Table 25); settings: rate 2 g ai/ha, scale 0 to 10, treated at 2.0 leaf stage, evaluated four weeks later
Description: as §1

WEED [18] = test: Field test applied 7 DAS in direct seeded rice in the Philippines, weed cover (Table 14); settings: 47 DAA
Description: as §1

FIMBRISTYLIS MILIACEA [19] = test: Field test applied at 18 DAS in direct seeded rice (Table 12); settings: 4 GM.A.I./HA, scale 0-10
Description: as §1

Sphenoclea zeylanica [20] = test: as above; settings: 4 GM.A.I./HA, scale 0-10
Description: as §1

Jussiaea linifolia = test: as above; settings: 4 GM.A.I./HA, scale 0-10
Description: as §1

Cyperus iria [21] = test: as above; settings: 4 GM.A.I./HA, scale 0-10
Description: as §1

SEDGE = test: Field test applied 7 DAS in direct seeded rice in the Philippines, cover (Table 14); settings: 47 DAA
Description: as §1

[22] = system: Barnyardgrass (Echinochloa crus-galli); test: as above; settings: 47 DAA
Description: as §1

Cyperus difformis [23] = test: Field test applied at 7 DAS in direct seeded rice (Table 11); settings: 4 GM.A.I./HA, scale 0-10
Description: as §1

Sphenoclea zeylanica [24] = test: as above; settings: 4 GM.A.I./HA, scale 0-10
Description: as §1

WEED [25] = test: Effects in combination with Bensulfuron Methyl and Thiobencarb or Pretilachlor on weed control (Table 24); settings: rate 2 g ai/ha, scale 0 to 10, treated at 1.0 leaf stage, evaluated four weeks later
Description: as §1

With `COC(=O)c1ccccc1S(=O)(=O)NC(=O)Nc1nc(C)nc(OC)n1` [Compound 1, Methyl 2-[[[[(4-methoxy-6-methyl-1,3,5-triazin-2-yl)amino]carbonyl]amino]sulfonyl]benzoate] the “PHYTO (1-9)” value (direct seeded rice [1]; 1.65 G AI/HA) was 2, the “PHYTO (1-9)” value (direct seeded rice [1]; 2.40 G AI/HA) was 2.3 and the “PHYTO (1-9)” value (direct seeded rice [1]; 3.33 G AI/HA) was 3.3. The “WEED CONTROL at 6 WAA SZ” value (Sphenoclea zeylanica [2]) was 9.53, the “WEED CONTROL at 6 WAA CI” value (Cyperus iria [3]) was 0 and the “% CONTROL OR INJURY CD” value (Cyperus difformis [4]) was 100%. The “% CONTROL OR INJURY SZ” value (Sphenoclea zeylanica [5]) was 98%, the “% CONTROL OR INJURY RICE” value (rice [6]) was 0% and the YIELD (direct seeded rice [7]; 2 GAI/HA) was 3.62 TONS/HA. The YIELD (direct seeded rice [7]; 4 GAI/HA) was 3.62 TONS/HA, the “WEEDS CONTROL at 4 WAA SZ” value (Sphenoclea zeylanica [8]; 2 GAI/HA) was 7.93 and the “WEEDS CONTROL at 4 WAA SZ” value (Sphenoclea zeylanica [8]; 4 GAI/HA) was 9.33. The “WEEDS CONTROL at 4 WAA MC” value (Marsilea crenata; 2 GAI/HA) was 10, the “WEEDS CONTROL at 4 WAA MC” value (Marsilea crenata; 4 GAI/HA) was 10 and the “WEEDS CONTROL at 4 WAA CI” value (Cyperus iria [9]; 2 GAI/HA) was 0. For the same compound, the “WEEDS CONTROL at 4 WAA CI” value (Cyperus iria [9]; 4 GAI/HA) was 0, the “% CONTROL OR INJURY SZ” value (Sphenoclea zeylanica [10]) was 93% and the “% CONTROL OR INJURY RICE” value (rice [11]) was 0%. The “% CONTROL OR INJURY CD” value (Cuperus difformis) was 100%, the “% CONTROL OR INJURY FM” value (FIMBRISTYLIS MILIACEA [12]) was 0% and the “% CONTROL OR INJURY SZ” value (Sphenoclea zeylanica [13]) was 60%. For the same compound, the “% CONTROL OR INJURY CI” value (Cuperus iria) was 0%, the “% CONTROL OR INJURY RICE” value (rice [14]) was 0% and the “% CONTROL OR INJURY LL” value (Ludwigia linifolia) was 67%. For the same compound, the YIELD (direct seeded rice [15]; 7 DAS) was 4.90 TONS/HA, the “PHYTO at 2WAA” value (direct seeded rice [15]; 7 DAS) was 0 and the YIELD (direct seeded rice [15]; 18 DAS) was 4.65 TONS/HA. The “PHYTO at 2WAA” value (direct seeded rice [15]; 18 DAS) was 0, the YIELD (direct seeded rice [15]; 25 DAS) was 5.04 TONS/HA and the “PHYTO at 2WAA” value (direct seeded rice [15]; 25 DAS) was 0. For the same compound, the “CROP TOLERANCE DW (Dry weight relative to untreated check)” value (rice [16]) was 73%, the “CROP TOLERANCE PH (Plant height relative to untreated check)” value (rice [16]) was 86% and the “CROP TOLERANCE VA (Visual crop injury)” value (rice [16]) was 3%. For the same compound, the “WEED CONTROL RATINGS CD” value (WEED [17]; Cyperus difformis) was 7, the “WEED CONTROL RATINGS CS” value (WEED [17]; Cyperus serotinus) was 0 and the “WEED CONTROL RATINGS EO” value (WEED [17]; Echinochloa oryzicola) was 1. For the same compound, the “WEED CONTROL RATINGS BL” value (WEED [17]; Lindernia pyxidaria) was 10, the “WEED CONTROL RATINGS MV” value (WEED [17]; Monochoria vaginalis) was 10 and the “WEED CONTROL RATINGS SP” value (WEED [17]; Sagittaria pygmaea) was 8. For the same compound, the “WEED CONTROL RATINGS SJ” value (WEED [17]; Scirpus juncoides) was 6, the “% WEED COVER” value (WEED [18]; 1.65 G AI/HA) was 29% and the “% WEED COVER” value (WEED [18]; 2.40 G AI/HA) was 35%. The “% WEED COVER” value (WEED [18]; 3.33 G AI/HA) was 35%, the “WEED CONTROL at 6 WAA FM” value (FIMBRISTYLIS MILIACEA [19]) was 0 and the “WEED CONTROL at 6 WAA SZ” value (Sphenoclea zeylanica [20]) was 6.33. For the same compound, the “WEED CONTROL at 6 WAA JL” value (Jussiaea linifolia) was 7.67, the “WEED CONTROL at 6 WAA CI” value (Cyperus iria [21]) was 0.33 and the “% SEDGE COVER” value (SEDGE; 1.65 G AI/HA) was 5%. The “% SEDGE COVER” value (SEDGE; 2.40 G AI/HA) was 6%, the “% SEDGE COVER” value (SEDGE; 3.33 G AI/HA) was 4% and the “% BYG COVER” value ([22]; 1.65 G AI/HA) was 26%. For the same compound, the “% BYG COVER” value ([22]; 2.40 G AI/HA) was 35%, the “% BYG COVER” value ([22]; 3.33 G AI/HA) was 35% and the “WEED CONTROL at 6 WAA CD” value (Cyperus difformis [23]) was 10. The “WEED CONTROL at 6 WAA SZ” value (Sphenoclea zeylanica [24]) was 10, the “WEED CONTROL RATINGS CD” value (WEED [25]; Cyperus difformis) was 10 and the “WEED CONTROL RATINGS CS” value (WEED [25]; Cyperus serotinus) was 1. For the same compound, the “WEED CONTROL RATINGS EO” value (WEED [25]; Echinochloa oryzicola) was 1, the “WEED CONTROL RATINGS BL” value (WEED [25]; Lindernia pyxidaria) was 10 and the “WEED CONTROL RATINGS MV” value (WEED [25]; Monochoria vaginalis) was 10. The “WEED CONTROL RATINGS SP” value (WEED [25]; Sagittaria pygmaea) was 8 and the “WEED CONTROL RATINGS SJ” value (WEED [25]; Scirpus juncoides) was 7.
